Results reported in patent US7935687B2, “Methods for treating spinal muscular atrophy using tetracycline compounds” (Paratek Pharmaceuticals, Inc., priority 2007, dated 2011).
Where two headings read alike, the source gives them in different places.

Assays:
S. aureus (SA RN450) = assay: Antibacterial MIC, gram positive; format: cell-based; conditions: CLSI methodology, 35° C., 18-24 hours
E. coli (EC D1-209) = assay: Antibacterial MIC, gram negative; format: cell-based; conditions: CLSI methodology, 35° C., 18-24 hours
SMN2 mRNA = assay: In vitro cell-free splicing assay for inclusion of exon 7; format: biochemical
Description: The following example illustrates how tetracycline compound of the invention are active in an in vitro cell-free assay for the inclusion of exon 7 in […] mRNA. SMN1 and SMN2 pre-mRNA were prepared by in vitro transcription using T7 RNA polymerase of minigene templates that include exon 6, a truncated portion of intron 6, exon 7, intron 7 and a portion of exon 8 in the presence of ^32P-UTP. Labeled RNA was purified on a denaturing polyacrylamide gel followed by phenol extraction and ethanol precipitation of the RNA.
In vitro cell-free splicing of SMN1 and SMN2 transcripts was carried out in a 10 μl reaction volume at 30° C. for 3 hours. The reactions contained 10 fmol of labeled pre-mRNA, 30% (3 VI) HeLa cell nuclear extract (in 20 mM HEPES, pH 7.4, 20% (v/v) glycerol, 0.1M KC1, 0.2 mM EDTA), 1.3% (w/v) polyvinyl alcohol, 1.56 mM MgCl2, 32 mM HEPES, pH 7.4, 0.5 mM ATP, 20 mM creatine phosphate and either 2 μl of test compound (in 20 mM HEPES, pH 7.4, 0.1M KC1, 0.2 mM EDTA) or buffer alone. Following incubation, 200 μl of a solution containing 0.3M NaAc and 0.2% SDS was added to the reaction. Proteins were removed by extraction with an equal volume of phenol and RNA was precipitated with 2.5 volumes of ethanol. RNA was resuspended in formamide sample buffer and separated on a 9% urea-denaturing polyacrylamide gel. Quantitation of splicing was based on phosphorimage analysis (Fujix BAS2000 or Fujifilm FLA-5100). In this assay, percentage exon 7 inclusion averages 12% for the unmutated SMN1 mRNA and 4% for the SMN2 mRNA.
The in vitro activities for exon 7 splicing are expressed as the Emax (the maximum percentage exon 7 inclusion observed) and Cmax (the lowest compound concentration at which the maximum inclusion occurs in μM). For Emax, percentage inclusion values of less than 10% are indicated by “*”, values of 10-20% are indicated by “**”, and values greater than 20% are indicated by “***”. For Cmax data, concentrations of greater than 40 μM are indicated by “*”, concentrations between 40 and 10 μM are represented by “**” and concentrations of less than 10 μM are represented by “***”.

[1] = HeLa cell nuclear extract, 30° C., 3 hours

| Compound | MIC Gram Positive (SA RN450) (S. aureus (SA RN450)) | MIC Gram Negative (EC D1-209) (E. coli (EC D1-209)) | also measured |
| --- | --- | --- | --- |
| CN(C)CCCNC(=O)c1ccc(-c2ccc(O)c3c2CC2CC4C(N(C)C)C(O)=C(C(N)=O)C(=O)C4(O)C(O)=C2C3=O)cc1 (stereo not drawn) [AA] | ** (modest antibacterial activity (between about 4 and 8 μg/mL)) | * (weak antibacterial activity (greater than about 8 μg/mL)) |  |
| CN(C)CCNC(=O)c1ccc(-c2ccc(O)c3c2CC2CC4C(N(C)C)C(O)=C(C(N)=O)C(=O)C4(O)C(O)=C2C3=O)cc1 (stereo not drawn) [AD] | *** (Good antibacterial activity (e.g., less than about 4 μg/mL)) | * (weak antibacterial activity (greater than about 8 μg/mL)) |  |
| CN(C)C1C(O)=C(C(N)=O)C(=O)C2(O)C(O)=C3C(=O)c4c(O)ccc(-c5cccc(C(N)=O)c5)c4CC3CC12 (stereo not drawn) [AE] | *** (Good antibacterial activity (e.g., less than about 4 μg/mL)) | * (weak antibacterial activity (greater than about 8 μg/mL)) |  |
| CC(=O)Nc1cccc(-c2ccc(O)c3c2CC2CC4C(N(C)C)C(O)=C(C(N)=O)C(=O)C4(O)C(O)=C2C3=O)c1 (stereo not drawn) [AO] | *** (Good antibacterial activity (e.g., less than about 4 μg/mL)) | * (weak antibacterial activity (greater than about 8 μg/mL)) |  |
| CN(C)CCNC(=O)c1cccc(-c2ccc(O)c3c2CC2CC4C(N(C)C)C(O)=C(C(N)=O)C(=O)C4(O)C(O)=C2C3=O)c1F (stereo not drawn) [AP] | *** (Good antibacterial activity (e.g., less than about 4 μg/mL)) | * (weak antibacterial activity (greater than about 8 μg/mL)) |  |
| CN(C)C1C(O)=C(C(N)=O)C(=O)C2(O)C(O)=C3C(=O)c4c(O)ccc(-c5ccccc5)c4CC3CC12 (stereo not drawn) [AQ] | *** (Good antibacterial activity (e.g., less than about 4 μg/mL)) | ** (modest antibacterial activity (between about 4 and 8 μg/mL)) |  |
| COC(=O)c1ccc(-c2ccc(O)c3c2CC2CC4C(N(C)C)C(O)=C(C(N)=O)C(=O)C4(O)C(O)=C2C3=O)cc1 (stereo not drawn) [AR] | *** (Good antibacterial activity (e.g., less than about 4 μg/mL)) | * (weak antibacterial activity (greater than about 8 μg/mL)) |  |
| CC(=O)c1cccc(-c2ccc(O)c3c2CC2CC4C(N(C)C)C(O)=C(C(N)=O)C(=O)C4(O)C(O)=C2C3=O)c1 (stereo not drawn) [AS] | *** (Good antibacterial activity (e.g., less than about 4 μg/mL)) | * (weak antibacterial activity (greater than about 8 μg/mL)) |  |
| COc1ccc(CN(C)C)cc1-c1ccc(O)c2c1CC1CC3C(N(C)C)C(O)=C(C(N)=O)C(=O)C3(O)C(O)=C1C2=O (stereo not drawn) [AT] | *** (Good antibacterial activity (e.g., less than about 4 μg/mL)) | *** (Good antibacterial activity (e.g., less than about 4 μg/mL)) |  |
| CC(C)OC(=O)c1cccc(-c2ccc(O)c3c2CC2CC4C(N(C)C)C(O)=C(C(N)=O)C(=O)C4(O)C(O)=C2C3=O)c1 (stereo not drawn) [AU] | *** (Good antibacterial activity (e.g., less than about 4 μg/mL)) | * (weak antibacterial activity (greater than about 8 μg/mL)) |  |
| CN(C)CCC(=O)c1ccc(O)c2c1CC1CC3C(N(C)C)C(O)=C(C(N)=O)C(=O)C3(O)C(O)=C1C2=O (stereo not drawn) [AV] | *** (Good antibacterial activity (e.g., less than about 4 μg/mL)) | * (weak antibacterial activity (greater than about 8 μg/mL)) |  |
| CN(C)c1cc(-c2ccc(CN3CCN(CCO)CC3)o2)c(O)c2c1C[C@H]1C[C@H]3[C@H](N(C)C)C(O)=C(C(N)=O)C(=O)[C@@]3(O)C(O)=C1C2=O [BA] | *** (Good antibacterial activity (e.g., less than about 4 μg/mL)) | * (weak antibacterial activity (greater than about 8 μg/mL)) |  |
| CN1CCN(CC(=O)c2ccc(O)c3c2CC2CC4C(N(C)C)C(O)=C(C(N)=O)C(=O)C4(O)C(O)=C2C3=O)CC1 (stereo not drawn) [BB] | *** (Good antibacterial activity (e.g., less than about 4 μg/mL)) | * (weak antibacterial activity (greater than about 8 μg/mL)) |  |
| CN(C)CC(=O)Nc1ccc(-c2ccc(O)c3c2CC2CC4C(N(C)C)C(O)=C(C(N)=O)C(=O)C4(O)C(O)=C2C3=O)cc1 (stereo not drawn) [BC] | *** (Good antibacterial activity (e.g., less than about 4 μg/mL)) | *** (Good antibacterial activity (e.g., less than about 4 μg/mL)) |  |
| CN(C)C1C(O)=C(C(N)=O)C(=O)C2(O)C(O)=C3C(=O)c4c(O)ccc(-c5cccc(C=CC#N)c5)c4CC3CC12 (stereo not drawn) [CO] |  |  | Cmax (lowest compound concentration at which the maximum exon 7 inclusion occurs) (SMN2 mRNA; [1]): ** (concentrations between 40 and 10 μM); Emax (maximum percentage exon 7 inclusion observed) (SMN2 mRNA; [1]): ** (values of 10-20%) |
| CN(C)C1C(O)=C(C(N)=O)C(=O)C2(O)C(O)=C3C(=O)c4c(O)ccc(-c5cccc(C(=O)NCCN6CCOCC6)c5)c4CC3CC12 (stereo not drawn) [CP] |  |  | Cmax (lowest compound concentration at which the maximum exon 7 inclusion occurs) (SMN2 mRNA; [1]): ** (concentrations between 40 and 10 μM); Emax (maximum percentage exon 7 inclusion observed) (SMN2 mRNA; [1]): *** (values greater than 20%) |
| COCCCNC(=O)c1cccc(-c2ccc(O)c3c2CC2CC4C(N(C)C)C(O)=C(C(N)=O)C(=O)C4(O)C(O)=C2C3=O)c1 (stereo not drawn) [CQ] |  |  | Cmax (lowest compound concentration at which the maximum exon 7 inclusion occurs) (SMN2 mRNA; [1]): * (concentrations of greater than 40 μM); Emax (maximum percentage exon 7 inclusion observed) (SMN2 mRNA; [1]): ** (values of 10-20%) |
| CN(C)C1C(O)=C(C(N)=O)C(=O)C2(O)C(O)=C3C(=O)c4c(O)ccc(-c5cccc(C(=O)NCCN6CCCC6)c5)c4CC3CC12 (stereo not drawn) [CR] |  |  | Cmax (lowest compound concentration at which the maximum exon 7 inclusion occurs) (SMN2 mRNA): ** (key: *: concentrations of greater than 40 μM; **: concentrations between 40 and 10 μM; ***: concentrations of less than 10 μM); Emax (maximum percentage exon 7 inclusion observed) (SMN2 mRNA): *** (key: *: percentage inclusion values of less than 10%; **: values of 10-20%; ***: values greater than 20%) |
| CN(C)CCNCc1cccc(-c2ccc(O)c3c2CC2CC4C(N(C)C)C(O)=C(C(N)=O)C(=O)C4(O)C(O)=C2C3=O)c1 (stereo not drawn) [CS] |  |  | Cmax (lowest compound concentration at which the maximum exon 7 inclusion occurs) (SMN2 mRNA): *** (key: *: concentrations of greater than 40 μM; **: concentrations between 40 and 10 μM; ***: concentrations of less than 10 μM); Emax (maximum percentage exon 7 inclusion observed) (SMN2 mRNA): ** (key: *: percentage inclusion values of less than 10%; **: values of 10-20%; ***: values greater than 20%) |
| CN(C)CCN(C)Cc1cccc(-c2ccc(O)c3c2CC2CC4C(N(C)C)C(O)=C(C(N)=O)C(=O)C4(O)C(O)=C2C3=O)c1 (stereo not drawn) [CT] |  |  | Cmax (lowest compound concentration at which the maximum exon 7 inclusion occurs) (SMN2 mRNA): ** (concentrations between 40 and 10 μM); Emax (maximum percentage exon 7 inclusion observed) (SMN2 mRNA): ** (values of 10-20%) |
| CN(C)CCCCNCc1cccc(-c2ccc(O)c3c2CC2CC4C(N(C)C)C(O)=C(C(N)=O)C(=O)C4(O)C(O)=C2C3=O)c1 (stereo not drawn) [CV] |  |  | Cmax (lowest compound concentration at which the maximum exon 7 inclusion occurs) (SMN2 mRNA; [1]): *** (concentrations of less than 10 μM); Emax (maximum percentage exon 7 inclusion observed) (SMN2 mRNA; [1]): ** (values of 10-20%) |
| CN(C)CCCCN(C)Cc1cccc(-c2ccc(O)c3c2CC2CC4C(N(C)C)C(O)=C(C(N)=O)C(=O)C4(O)C(O)=C2C3=O)c1 (stereo not drawn) [CW] |  |  | Cmax (lowest compound concentration at which the maximum exon 7 inclusion occurs) (SMN2 mRNA; [1]): *** (concentrations of less than 10 μM); Emax (maximum percentage exon 7 inclusion observed) (SMN2 mRNA; [1]): ** (values of 10-20%) |
| CN(C)CCCNCc1cccc(-c2ccc(O)c3c2CC2CC4C(N(C)C)C(O)=C(C(N)=O)C(=O)C4(O)C(O)=C2C3=O)c1 (stereo not drawn) [CX] |  |  | Cmax (lowest compound concentration at which the maximum exon 7 inclusion occurs) (SMN2 mRNA): *** (key: *: concentrations of greater than 40 μM; **: concentrations between 40 and 10 μM; ***: concentrations of less than 10 μM); Emax (maximum percentage exon 7 inclusion observed) (SMN2 mRNA): ** (key: *: percentage inclusion values of less than 10%; **: values of 10-20%; ***: values greater than 20%) |
| CN(C)CCCN(C)Cc1cccc(-c2ccc(O)c3c2C[C@H]2C[C@H]4[C@H](N(C)C)C(O)=C(C(N)=O)C(=O)[C@@]4(O)C(O)=C2C3=O)c1 [Compound CU, (4S,4aS,5aR,12aS)-4-Dimethylamino-7-(3-{[(3-dimethylamino-propyl)-methyl-amino]-methyl}-phenyl)-3,10,12,12a-tetrahydroxy-1,11-dioxo-1,4,4a,5,5a,6,11,12a-octahydro-naphthacene-2-carboxylic Acid Amide] |  |  | Cmax (lowest compound concentration at which the maximum exon 7 inclusion occurs) (SMN2 mRNA; [1]): *** (concentrations of less than 10 μM); Emax (maximum percentage exon 7 inclusion observed) (SMN2 mRNA; [1]): ** (values of 10-20%) |
